We go through 2 molecules from patent publication EP1242084B1, “TREATMENT OF BREAST CARCINOMAS, ASTROCYTOMAS, MELANOMAS AND RELATED TUMORS” (priority 2000, dated 2001).

Each structure is given as a SMILES string.

In one test the test system is AML-3 patients. As to conditions: oral, alone; cited from earlier work.
For test [1], the system named is human pro-myelocytic leukemia (HL-60 cells). The experiment in a line: Inhibition of proliferation of HL-60 cells, Trypan Blue cell counts. The class given is cell-based. To be noted: 1400 micrograms/ml. The source says:
[…] Five ml of each pirfenidone concentration, and of the control were placed into a T25 tissue culture flask along with 1X10^5 cells. Every day for 4 days an aliquote from each flask was taken out, then stained with Trypan Blue, and counts were repeated three times on each aliquote.

For test [2], the system named is human T-cell leukemia (JURKAT) cells. The experiment in a line: Inhibition of proliferation of JURKAT cells, MTS assay. The class given is cell-based. As to conditions: 900 mcg/ml, 72 hours, statistically significant, read-out: reduction in number of cell which were active. On the procedure: (§1) To determine the inhibitory effect of pirfenidone concentrations on human T-cell leukemia (JURKAT), a MTS assay was used which incorporates a tetrazolium dye that measures the cellular conversion of the dye into a formazan product by the activation of NADH-generating dehydrogenases found in metabolically active cells. Procedure: • 1. 100 microl. of cells was seeded into 96 well plates at 1X10^5 cells/ml in media containing 100 mcg/ml, 300 mcg/ml and 900 mcg/ml of pirfenidone, as well as a pirfenidone-free media control. • 2. Cells were incubated at 37 degrees C, at 5.0% CO2 for 72 hours. • 3. After incubation a standard curve was made of 100 microliters of cells added to the plate at 5X10^5 cells/ml making 1:2 dilutions all the way down to a pre-set degree of dilution. • 4. 2.0 mls of the MTS solution was mixed with a 100 microliter of the PMS solution, and 20 microliters of this combined dye solution was added to each well and incubated at 37 degrees C, 5.0% CO2 for 3 hours. • 5. Subsequently the absorbance was read at 490 nm.
Background: Formazan colour is commonly taken as a measure of viable cells.

In test [3] the test system is human Burkitt's lymphoma (RAJI) cells. As to the kind of experiment: Inhibition of proliferation of RAJI cells, MTS assay. The class given is cell-based. To be noted: 900 mcg/ml, 72 hours, statistically significant, read-out: reduction in number of cells which were active. The protocol: To determine the inhibitory effect of pirfenidone concentrations on Burkitt's lymphoma (RAJI) cells, a MTS assay was used which incorporates a tetrazolium dye that measures the cellular conversion of the dye into a formazan product by the activation of NADH-generating dehydrogenases found in metabolically active cells.
as §1, with “•” for “To determine the inhibitory effect of pirfenidone concentrations on human T-cell leukemia (JURKAT), a MTS assay was used which incorporates a tetrazolium dye that measures the cellular conversion of the dye into a formazan product by the activation of NADH-generating dehydrogenases found in metabolically active cells. Procedure: •”

A further test deals with HUMAN LEIOMYOMA CELLS. The experiment in a line: Leiomyoma cell proliferation and viability, day 7 cell counts with Trypan Blue stain. The class given is cell-based. To be noted: for RECENT CELLS LEIOMYOMA: day 7 (control 0.0 MG: 9.0). The arrangement: RECENT CELLS LEIOMYOMA: unit not given here. The protocol:
Leiomyoma tissues were obtained from several premenopausal women with symptomatic uterine fibroids at elective hysterectomy, and who were not receiving any hormonal or other drug therapy. The fibroid tissues were minced into 1 - 2 mm\# explants and placed in suitable DMEM supplemented with 10% bovine serum. The fibroid tissue was digested for 14 -18 hours at 37 degrees C in an incubator. After centrifugation, a resulting cell pellet was resuspended in DMEM and then placed in culture flasks.
Leiomyoma cells were plated in 100mm dishes (100,000 each dish) and allowed to attach overnight in DMEM plus 10% fetal bovine serum until they reached 80-90% confluence.

On to `CC1=C(/C=C/C(C)=C/C=C/C(C)=C/C(=O)O)C(C)(C)CCC1` [All-trans-retinoic acid], for which the clinical outcome in the test on AML-3 patients was “complete remission”.

Regarding `Cc1ccc(=O)n(-c2ccccc2)c1` [pirfenidone], the “Inhibition of proliferation as well as deaths of cells” value in test [1] was “deaths of almost all cells”. Further, the inhibition at 900 µg/mL in test [2] was found to be 75%; in test [3], 45%. For the same molecule, the “RECENT CELLS LEIOMYOMA” value in the test on HUMAN LEIOMYOMA CELLS (0.01 MG/ML) came to 8.0; in the test with HUMAN LEIOMYOMA CELLS (0.1 MG/ML), 10.0; in the test on HUMAN LEIOMYOMA CELLS (0.3 MG/ML), 6.0; in the test on HUMAN LEIOMYOMA CELLS (1.0 MG/ML), 16.0. Also, the cytotoxicity at 1000 µg/mL with HUMAN LEIOMYOMA CELLS (Homo sapiens, 168 h, read-out: percentage of dead leiomyoma cells) was determined as 16%. Besides, the “inhibitory effect on proliferation” value with HUMAN LEIOMYOMA CELLS (graded concentrations in the culture media, 7 days) is recorded as “significant inhibitory effect”.
